The target of the test is T1, TvCE (Trichomonas vaginalis, UniProt A2DUZ5).
T1 construct: gene TVAG_187730; full-length (561 residues, 69 kDa without tag), N-terminal His tag from pET200D, E. coli BL21, ~71 kDa monomer
T1 sequence (A2DUZ5 1-561): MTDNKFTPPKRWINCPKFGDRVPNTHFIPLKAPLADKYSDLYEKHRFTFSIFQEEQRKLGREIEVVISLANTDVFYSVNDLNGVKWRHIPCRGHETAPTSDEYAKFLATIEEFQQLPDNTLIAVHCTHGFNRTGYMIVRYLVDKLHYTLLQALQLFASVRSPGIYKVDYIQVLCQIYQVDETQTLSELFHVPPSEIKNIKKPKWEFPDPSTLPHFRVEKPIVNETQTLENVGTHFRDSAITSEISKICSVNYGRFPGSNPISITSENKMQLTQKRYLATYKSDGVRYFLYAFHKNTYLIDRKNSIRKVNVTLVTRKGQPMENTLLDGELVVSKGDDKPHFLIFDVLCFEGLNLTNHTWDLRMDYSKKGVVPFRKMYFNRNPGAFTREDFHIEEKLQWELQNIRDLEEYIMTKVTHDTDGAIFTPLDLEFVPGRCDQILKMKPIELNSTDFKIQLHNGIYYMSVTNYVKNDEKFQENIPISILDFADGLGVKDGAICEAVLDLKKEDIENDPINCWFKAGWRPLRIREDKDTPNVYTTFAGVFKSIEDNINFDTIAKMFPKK
Nature of the test: SDS-PAGE autoradiography of covalent enzyme-GMP intermediate; cold NTP competition. The class given is biochemical. The note with it: guanylyltransferase domain; labelled compound; covalent enzyme-(lysyl-N)-GMP; 50 mM Tris-acetate pH 7.0, 5 mM DTT, 2.5 mM MgCl2, 37 °C.

Each structure is given as a SMILES string.

For the molecule `Nc1nc2c(ncn2[C@@H]2O[C@H](COP(=O)(O)OP(=O)(O)OP(=O)(O)O)[C@@H](O)[C@H]2O)c(=O)[nH]1` [[α-^32P]GTP], the “SDS-PAGE autoradiography of covalent enzyme-GMP intermediate; cold NTP competiti” value was “displayed an absolute specificity for a GTP substrate”.

Values taken from PMC2904801, “A Metazoan/Plant-like Capping Enzyme and Cap Modified Nucleotides in the Unicellular Eukaryote Trichomonas vaginalis” (PLoS Pathogens, 2010).
